The values that follow are results of earlier work, collected in patent US20210322405A1, “COMPOSITIONS AND METHODS FOR TREATING CANCER” (Washington University, priority 2020, published 2021).

In one data set the test system is GBM patients. The conditions noted are these: clinical trial; Butowski et al., 2016.
The test system of data set [1] is ALK-inhibitor resistant ALK-driven patient-derived cell lines. The conditions noted are these: SHP099 in combination with the ALK inhibitor ceritinib; Dardaei et al., 2018.
The test system of a further data set is G6PD. The note with it: dose-dependent manner; Bernstock et al., 2017.

On to `FC(F)(F)c1ccc(CNc2ccc(Cc3c[nH]c4ncc(Cl)cc34)cn2)cn1` [PLX3397], for which the “clinical benefit for GBM patients” value in the data set with GBM patients is listed as “did not show clear benefit”.

As for `CC1(N)CCN(c2cnc(-c3cccc(Cl)c3Cl)c(N)n2)CC1` [SHP099], in data set [1], the “Shp2-activation-mediated resistance to ALK inhibitor” value is recorded as “overcome”.

Consider `CC[C@@]1(O)C(=O)OCc2c1cc1n(c2=O)Cc2cc3c(CN(C)C)c(O)ccc3nc2-1` [topotecan], for which the “activity of G6PD” value in the data set on G6PD is “decreases”.
